Values quoted from earlier work as cited in patent US20170056383A1, “TOPICAL HERPES PAIN TREATMENT AND COMPOSITION” (priority 2015, published 2017).

System: Herpes Simplex Virus lesions
Details: applied to the lesion

**Q.** Which active working time does the source give for `CCOC(=O)c1ccc(N)cc1` [benzocaine] here?
**A.** about 15 minutes
